Assay results published in the METLIN SMRT retention time set (Domingo-Almenara et al. 2019).

Assay: gradient 5% acetonitrile 3 min, to 50% in 2 min, to 85% in 15 min, held 3 min, 100 µL/min
Conditions: column: Zorbax Extend-C18 2.1 x 50 mm; eluents: water / acetonitrile, 0.1% formic acid
Summary of the method: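 In both positive and negative ionization mode, a quadrupole time-of-flight mass spectrometer coupled to HPLC analyzed pure standards run in mixtures of ~100 molecules. The Zorbax Extend-C18 column (2.1 × 50 mm, 1.8 μm) was operated at 100 μL/min with water and acetonitrile, each containing 0.1% formic acid. The dead volume was 40 μL and the dwell volume 900 μL. Retention time came from adduct peaks that were computationally picked and individually inspected by hand.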

Row | Structure (SMILES) | RP-LC retention time [s]
1 | Cc1ccc(C(=O)NCCc2nc3cccnc3n2C(C)C)c(C)c1 | 695
2 | COc1cccc(S(=O)(=O)N2CCCN(S(=O)(=O)c3ccccc3)CCC(=O)NCC2)c1 | 805
3 | CCN1C(=O)c2cccnc2Sc2cc(NC(=O)c3ccccc3OC)ccc21 | 868
4 | O=C(CCC(=O)c1ccc(F)cc1)Nc1cnn(-c2ncc(N3CCCC3)cn2)c1 | 799
5 | CCC(=O)N1CCc2cc(C)c(S(=O)(=O)NC(C)C)cc21 | 796
6 | Cc1ccc(-c2nc3nc(C)cc(C)n3c2Nc2cccc(C(F)(F)F)c2)cc1 | 817
7 | Cc1cc(C)n(-c2ccnc(NCc3ccc(F)cc3)n2)n1 | 829
8 | COc1ccc(OC)c(-c2nnc(SCC(=O)Nc3nccs3)o2)c1 | 693
9 | Cc1nc(-c2ccc3c(c2)n(CC(=O)Nc2ccc(S(N)(=O)=O)cc2)c(=O)n3C(C)C)no1 | 707
10 | O=C1CCCc2nc(N3CCN(CCO)CC3)nc(Nc3ccccc3)c21 | 644
11 | CCN(CC)C(=O)c1cccnc1 | 627
12 | Cc1nc2ccn(Cc3cccnc3)c(=O)c2cc1C(=O)NCCC1=CCCCC1 | 648
13 | COC(=O)c1cc(S(=O)(=O)N2CCCC2C(=O)Nc2nc3ccc(OC)cc3s2)cn1C (stereo not given) | 893
14 | COc1cccc(CNC2=NCCNC23CCN(S(=O)(=O)c2cc(C)c(C)cc2C)CC3)c1 | 836
15 | COc1ccc(N2CC(c3noc(-c4ccc(N(C)C)cc4)n3)CC2=O)cc1 (stereo not given) | 889
16 | Cc1cccc(C2CC(=O)c3c(C)nc(N4CCN(CCO)CC4)nc3C2)c1 (stereo not given) | 665
17 | COC[C@@H]1CN(C(=O)c2occc2C)C[C@H]1c1nc(C2CC2)no1 | 816
18 | Cc1nc(-c2ccc(F)cc2)sc1C(=O)NC(C)C | 890
19 | Brc1ccc(-c2ccc(CNCc3ccccn3)o2)cc1 | 703
20 | CN1CCC2(CCN3CCc4c(oc5ccccc45)C3C2)N(C)C1=O (stereo not given) | 615
21 | CCNc1nc(NCC)nc(-n2cnc(SC)n2)n1 | 718
22 | CNC(=O)N1CCCC(c2nc(CCOCC3CCCC3)no2)C1 (stereo not given) | 759
23 | Cc1ccc(-c2n[nH]c3c2CN(C(=O)c2cnn4cccnc24)CC3)cc1 | 648

Row | Structure (SMILES) | RP-LC retention time [s]
24 | O=S(=O)(Nc1ccc(Cn2cncn2)cc1)c1ccc2c(c1)CCC2 | 759
25 | COc1ccc(S(=O)(=O)C(CNC(=O)c2cccc([N+](=O)[O-])c2C)c2ccco2)cc1 (stereo not given) | 664
26 | COc1ccc(C2C(C(=O)NCCC(C)C)CCC(=O)N2c2cc(OC)c(OC)c(OC)c2)cc1 (stereo not given) | 744
27 | O=C(Cn1nc2nc(Nc3ccc(F)cc3)ccn2c1=O)Nc1ccc(F)cc1 | 751
28 | Cc1cccc(NC(=O)Nc2c(-c3ccc(F)cc3)nc3ccccn23)c1 | 695
29 | Cc1nc(-c2cccc(NC(=O)Cc3csc(Nc4ncccn4)n3)c2)cs1 | 731
30 | CCOc1ccccc1C(=O)NCCc1csc(-c2cccnc2)n1 | 668
31 | Cn1cc(CC(=O)NCc2ccc(F)cc2F)c2cccnc21 | 688
32 | O=C(Cn1c2ccccc2n2c(=O)cc(-c3ccc(F)cc3)nc12)NCc1ccco1 | 912
33 | CC(C)c1ccc(S(=O)(=O)N2CCC(C)(C(=O)NCc3ccccc3)CC2)cc1 | 1050
34 | Cc1ccc(NC(=O)Cn2nc(N3CCCC(C)C3)c3ccccc3c2=O)cc1 (stereo not given) | 1140
35 | CN(C)C(=O)c1cc(N(C)C)nc2c(Cl)cccc12 | 745
36 | Cc1nc2cc(-c3noc(-c4ccccn4)n3)ccc2n(C2CCCC2)c1=O | 991
37 | CC(C)C(=O)NCc1csc(C2CCN(C(=O)COc3ccccc3)CC2)n1 | 722
38 | CCOc1ccc(NC(=O)C2CCN(S(=O)(=O)c3cc(-c4noc(C)n4)cs3)CC2)cc1 | 917
39 | O=C(CN1CCN(c2ccc(Cl)cc2)C1=O)N1CCN(C(=O)c2ccco2)CC1 | 695
40 | Cc1cc2nc(Nc3ncc4c(n3)CC(c3ccccc3)CC4=O)nc(C)c2cc1C (stereo not given) | 793
41 | O=S(=O)(Cc1ccccc1)N1CCCCC1c1nc(C2CC2)n[nH]1 (stereo not given) | 758
42 | O=C(Cc1cccs1)NC1CCCN(c2cc(-c3ccccc3)[nH]n2)C1 (stereo not given) | 758
43 | COC[C@@H]1CN(Cc2c(C)noc2C)C[C@H]1c1ccccn1 | 580
44 | Cc1noc2nc(CCC(=O)NCc3ccccc3F)nc(N3CCCC3)c12 | 767
45 | O=C(O)c1ccc(Nc2c(-c3cccc(Cl)c3)nc3cnccn23)cc1 | 714
46 | CS(=O)(=O)N1CCc2ccc(C(=O)NCCN3CCC(N4CCCCC4)CC3)cc21 | 583

Row | Structure (SMILES) | RP-LC retention time [s]
47 | COc1ccc2nc(SCC(=O)N3CCC(C(N)=O)CC3)nc(C)c2c1 | 626
48 | O=S(=O)(c1ccc(-c2nnc(C3CCC3)o2)o1)N1CCN(c2ccccc2)CC1 | 1090
49 | CCCn1cc(CCNS(=O)(=O)c2ccccc2)c2cccnc21 | 786
50 | COc1cc(-c2noc(C3CC(=O)N(c4ccc(C)c(C)c4)C3)n2)cc(OC)c1OC (stereo not given) | 990
51 | CCOc1ccc(NC(=O)c2noc3c2CCCC3)cc1 | 958
52 | Cc1ccc(NC(=O)Cn2cccc2-c2nnc(C3CCC3)o2)cc1Cl | 1010
53 | Cc1cccc(C)c1NC(=O)CN1CCCC1 | 633
54 | CCOC(=O)CNC(=O)N1CCCC1c1ccc(Cl)cc1 (stereo not given) | 795
55 | CCOC(=O)c1noc2nc(C)nc(Nc3ccc(C)cc3)c12 | 936
56 | COc1ccc(NS(=O)(=O)c2cn(C(C)C)c3ncccc23)cc1Cl | 908
57 | Cc1ccc(NC(=O)c2cnc3c(c2)c(=O)n(C)c(=O)n3-c2ccc(F)cc2)cc1 | 936
58 | Cc1ccc(S(=O)(=O)N2CCc3c(c(-c4nnc(-c5ccc(F)cc5)o4)nn3C)C2)cc1C | 851
59 | COc1ccc(OCC(=O)N2CCC(Nc3cccnc3)C2)cc1 (stereo not given) | 726
60 | CCN1CCC(N(Cc2ccc3c(c2)OCO3)C(=O)Nc2cccc(C)c2)CC1 | 691
61 | CCOC(=O)C1CCN(C(=O)C2CCCN(c3nccc(C)n3)C2)CC1 (stereo not given) | 698
62 | O=C1/C(=C/c2ccsc2)CC/C1=C\c1cccs1 | 1280
63 | CC(=O)N1CCCSc2ccc(S(=O)(=O)N3CCN(c4cccc(Cl)c4)CC3)cc21 | 1050
64 | O=C(O)c1cc(-c2ccco2)n(C2CCS(=O)(=O)C2)n1 (stereo not given) | 604
65 | CCNC(=O)c1cc(C)nc2ccc(CC)cc12 | 582
66 | O=C(OCn1nnc2ccccc2c1=O)c1ccccc1[N+](=O)[O-] | 1030
67 | COc1ccc(-c2csc(Cc3nc(-c4ccc(Cl)cc4)no3)n2)cc1 | 1290
68 | CCN(CC)CCCNC(=O)C1c2ccccc2C(=O)N2CCc3cc(OC)c(OC)cc3C12 (stereo not given) | 597
69 | CS(=O)(=O)Nc1ccc(C2(C(=O)NCc3ccc(F)cc3)CCCCC2)cc1 | 897

Row | Structure (SMILES) | RP-LC retention time [s]
70 | COc1ccc(OC)c(NC(=O)C2CCCN(c3ncnc4c3nc3n4CCCCC3)C2)c1 (stereo not given) | 815
71 | Cc1ccc(CNC(=O)c2sc(Nc3ccc(F)cn3)nc2C)cc1 | 859
72 | CCn1cc(-c2nc(CC(=O)N3CCN(c4ccccc4F)CC3)cs2)c2cccnc21 | 976
73 | CCOC(=O)CNC(=O)N1CCN(CCn2c(C(F)(F)F)nc3cccnc32)CC1 | 588
74 | Cc1ccc(C)c(NS(=O)(=O)c2cc(-c3[nH]ncc3C(=O)N3CCOCC3)oc2C)c1 | 701
75 | COc1ccc(-c2nc(C)cc3nn(CC(=O)Nc4ccc(C)c(C)c4)c(=O)n23)cc1 | 895
76 | O=C(Nc1nc(CC(=O)N2CCCc3ccccc32)cs1)C1CC1 | 739
77 | COc1ccc(OC)c(S(=O)(=O)N2CCCC(C)(C(=O)NCc3cccc(F)c3)C2)c1 (stereo not given) | 916
78 | COCCN1C(=O)Cc2ccccc2C1C(=O)NCc1cccc(Cl)c1 (stereo not given) | 766
79 | Cc1ccc(-c2noc(Cn3nc(-c4ccccc4)ccc3=O)n2)cc1 | 1080
80 | O=C(c1ccc(OCC2CCCN2C(=O)c2ccc(F)c(F)c2)cc1)N1CCCC1 (stereo not given) | 779
81 | Cc1ccc(CNC(=O)Cn2c(=O)cc(-c3nc(C4CC4)no3)c3ccccc32)cc1 | 950
82 | CCN1c2ccc(C)cc2C(=O)NC12CCN(C(=O)c1cccc(Cl)c1)CC2 | 603
83 | O=C(c1cn(-c2cc(N3CCCCC3)ncn2)cn1)N1CCN(c2ncccn2)CC1 | 785
84 | C=CCSC(CC)(CC)C(N)=O | 805
85 | COc1ccccc1-c1noc(Cn2ccn3nc(-c4cccc5ccccc45)cc3c2=O)n1 | 1070
86 | CSc1ccc(NC(=O)C2c3ccccc3Oc3ccccc32)nn1 | 907
87 | COc1cc(=O)c(C(N)=O)nn1-c1ccc(F)cc1 | 579
88 | O=C(NC1CCCC1)C1CCN(C(=O)c2cc(-c3ccncc3)n[nH]2)CC1 | 582
89 | Cc1csc(-c2ccc(N3CCN(C(=O)Cc4cccc(F)c4)CC3)nc2)n1 | 849
90 | Cc1cccc(-n2cc(C(=O)OCc3ccncc3)c3ccccc3c2=O)c1 | 743
